# Results reported in article PMC10726354, “Design, Synthesis, and Biological Evaluation of Small-Molecule-Based Radioligands with Improved Pharmacokinetic Properties for Imaging of Programmed Death Ligand 1” (Journal of Medicinal Chemistry, 2023).
# Target: T1, PD-L1 (Homo sapiens, UniProt Q9NZQ7)
# T1 construct: expressed in transfected cells; host or cells: PC3 cells (human prostate carcinoma), stably transduced
# Assay: Saturation binding assay on live PC3 PD-L1 overexpressing cells
# Method: For assessing the binding affinity of compounds [^64Cu]Cu-1–6, PC3 cells transduced with PD-L1 were used. Dissociation constants in equilibrium (KD) and maximum number of binding sites (Bmax) were determined in a saturation binding assay. The assays were performed with the addition of 2.5% bovine serum albumin (BSA) in the medium to prevent unspecific binding to plastic wells, as reported previously for our first radioligands.[1]
# For saturation binding, cells were trypsinized (0.05% Trypsin–EDTA, Gibco, USA), counted, and diluted to ∼160,000 cells/mL. 0.25 mL of the cell solution was then added to each well of a 48-well plate (Falcon Multiwell #353078) and grown for at least 2 days.
# To determine the affinity (KD) and the number of binding sites (Bmax) of the herein described PD-L1 small-molecule ligands, saturation binding was performed in at least three independent experiments, as described before.[45] Cells were brought to room temperature followed by cooling on ice (each 15 min). The medium was removed and replaced with 200 μL assay buffer [PBS + 2.5% (w/v) BSA] for total binding (TB) conditions or assay buffer containing 300 μM BMS-1166 (in DMSO, resulting in 0.03% v/v) for the assessment NSB. After 15 min preincubation, 200 μL of each of the eight serial 1:1 dilutions (500 to 3.91 nM) of the respective radioligand was added (in triplicate). Cells were then incubated for 90 min at 4 °C, washed (3 × 1 min), and lysed in 500 μL of 0.1 M NaOH + 1% SDS. Radioactivity of the lysate was measured and decay corrected to a reference time (end of radiolabeling). An additional plate was subjected to the same conditions (preincubation, incubation, and washing) using PBS without BSA for each experiment, and the protein content of these lysates was determined by BCA assay. From CPM measurements, final values (pmol/mg protein) were calculated using the mean protein content and molar activity.
# Processed data were then subjected to nonlinear iterative curve fitting (GraphPad Prism 9) to yield Bmax (in pmol/mg protein) and KD (in nM).
# T1 sequence (Q9NZQ7 19-290): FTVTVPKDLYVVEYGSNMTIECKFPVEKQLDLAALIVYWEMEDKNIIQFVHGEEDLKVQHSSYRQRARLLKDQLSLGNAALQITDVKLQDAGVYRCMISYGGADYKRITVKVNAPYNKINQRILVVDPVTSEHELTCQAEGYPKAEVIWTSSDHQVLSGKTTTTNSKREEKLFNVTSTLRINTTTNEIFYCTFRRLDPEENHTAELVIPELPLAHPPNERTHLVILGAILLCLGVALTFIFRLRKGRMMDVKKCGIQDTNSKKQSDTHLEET
smiles,measurement,value
"Cc1c(COc2cc(OCc3cccc(C#N)c3)c(CN3C[C@H](O)C[C@@H]3C(=O)O)cc2Cl)cccc1-c1ccc2c(c1)OCCO2 [BMS-1166, reference compound]",binding blocked in the saturation assay,~80%
